This is an account of results in patent US6906078B2, “Method of using (H+/K+) ATPase inhibitors as antiviral agents” (Pharmacia Corporation, priority 1994, dated 2005).

In data set [1] the test system is gastric acid secretion. As to the kind of experiment: Inhibition of gastric acid secretion in gastric fistula beagle dogs (histamine-stimulated). The data set is classed as in vivo. As to conditions: for inhibition in vivo at 3 mg/kg: Canis lupus familiaris, 4 h, read-out: Gastric-Fistula Beagle % Inhibition (3 mg/kg dose). The source says:
Adult female beagle dogs weighing 6 to 11 kilograms obtained from Laboratory Research Enterprises (Kalamazoo, Mich.) or from Hazelton Research Animals (Cumberland, Va.) were surgically implanted with a simple Thomas-type gastric cannula. After recovery from surgery, the dogs were trained to stand quietly, fully conscious, in Pavlov-type dog restraining slings and were acclimated to intravenous infusion of histamine dihydrochloride. During the course of these studies, no dog was used more than once a week. All dogs were deprived of food, but not water, for 18 hours prior to each assay. Each dog was initially infused with 0.15 M sodium chloride solution at a constant rate of […]. The volume of gastric secretions, collected in plastic bottles affixed to the cannula, were measured to the nearest 0.1 ml at 30 minute intervals. One of the following protocols was followed, depending on the route chosen for administration of test compound.
Intravenous dosing: Following a 30-minute basal secretion period, test compounds were administered intravenously (i.v.). At the end of an additional 30 minute period, the saline infusion was replaced with histamine dihydrochloride in saline administered at a rate 15 mcg per kilogram of body weight per hour. Histamine stimulation was maintained for a maximum of four hours during which time gastric secretions were collected every 30 minutes. The pH and titratable acidity were determined for samples from each collection period.
Intragastric dosing: Following a 30-minute basal secretion period, he collection bottles were removed, dosing plugs here inserted, and test compounds were administered intragastrically (i.g.) At the end of a 30-minute drug absorption period, the stomachs were emptied, the collection bottles were reattached, and collections were resumed at 30-minute intervals. Simultaneously, the saline infusion was replaced with a continuous intravenous infusion of histamine dihydrochloride in saline administered for four hours at a rate 15 mcg per kilogram of body weight per hour.
Intraduodenal dosing: Dogs were also equipped with duodenal cannulas for intraduodenal (i.d.) administration of test compounds. Dosing was otherwise performed as described for intragastric dosing.
Data from each protocol were analyzed for three gastric sample variables: volume of gastric juice, acid concentration, and total acid output. Percent inhibition for each four-hour experimental period was determined for each parameter by comparison with 3 to 4 controls in which […]. Estimates of ED50's were determined from dose response curves.

In data set [2] the target is T1, (H+/K+)-ATPase (Canis lupus familiaris, UniProt P50996).
T1 construct: The microsomes retained at the 15%-30% sucrose interface, after centrifugation at 250,000×g for sixty minutes, were used as the source of (H^+/K^+)-ATPase; from tissue; host or cells: gastric glandular mucosa of mongrel dogs (microsomal fraction, lyophilized)
T1 sequence (P50996 whole entry): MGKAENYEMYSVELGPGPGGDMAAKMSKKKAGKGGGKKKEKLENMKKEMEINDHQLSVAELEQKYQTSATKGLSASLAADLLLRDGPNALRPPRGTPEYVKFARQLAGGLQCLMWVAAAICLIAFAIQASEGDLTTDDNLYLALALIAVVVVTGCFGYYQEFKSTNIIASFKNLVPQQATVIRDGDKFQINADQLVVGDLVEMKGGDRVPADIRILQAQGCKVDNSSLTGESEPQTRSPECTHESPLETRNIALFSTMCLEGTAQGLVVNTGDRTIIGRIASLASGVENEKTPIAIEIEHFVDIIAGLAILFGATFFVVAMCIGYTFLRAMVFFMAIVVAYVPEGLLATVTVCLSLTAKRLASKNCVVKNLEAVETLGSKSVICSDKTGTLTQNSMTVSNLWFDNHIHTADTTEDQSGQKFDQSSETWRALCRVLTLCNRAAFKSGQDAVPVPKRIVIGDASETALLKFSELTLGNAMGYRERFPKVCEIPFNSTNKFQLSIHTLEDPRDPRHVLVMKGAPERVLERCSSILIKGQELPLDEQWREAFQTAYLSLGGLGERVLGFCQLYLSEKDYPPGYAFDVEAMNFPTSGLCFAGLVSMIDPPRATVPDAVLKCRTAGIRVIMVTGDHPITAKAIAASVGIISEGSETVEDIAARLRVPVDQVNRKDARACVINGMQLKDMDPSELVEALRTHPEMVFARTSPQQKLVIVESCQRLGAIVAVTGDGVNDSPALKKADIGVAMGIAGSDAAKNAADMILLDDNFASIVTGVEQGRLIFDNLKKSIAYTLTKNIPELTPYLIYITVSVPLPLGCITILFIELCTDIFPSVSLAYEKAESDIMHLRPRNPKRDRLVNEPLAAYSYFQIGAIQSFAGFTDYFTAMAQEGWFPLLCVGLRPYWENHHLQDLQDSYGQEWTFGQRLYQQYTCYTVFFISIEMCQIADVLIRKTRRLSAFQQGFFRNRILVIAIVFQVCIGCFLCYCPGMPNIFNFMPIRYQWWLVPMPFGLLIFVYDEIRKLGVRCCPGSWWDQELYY
T1 sequence (P33704 whole entry partner): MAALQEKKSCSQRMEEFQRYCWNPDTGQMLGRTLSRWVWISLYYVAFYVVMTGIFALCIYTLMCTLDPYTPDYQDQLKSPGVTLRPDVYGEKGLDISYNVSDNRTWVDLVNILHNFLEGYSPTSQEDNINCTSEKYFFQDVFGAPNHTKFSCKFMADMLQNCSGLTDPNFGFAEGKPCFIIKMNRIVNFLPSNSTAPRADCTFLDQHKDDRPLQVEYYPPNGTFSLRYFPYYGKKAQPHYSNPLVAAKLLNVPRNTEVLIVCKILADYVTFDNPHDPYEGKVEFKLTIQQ
In words: Inhibition of (H+/K+)-ATPase from canine gastric mucosa (inorganic phosphate release). As to conditions: canine gastric mucosa microsomes, pH 6.0, 30 min preincubation at 37° C.; read-out: (H+/K+)-ATPase IC50. The data set is classed as biochemical. On the procedure: Mongrel dogs weighing 15 to 25 kilograms were fasted for twenty-four hours, with water provided ad libitum. The animals were anesthetized with pentobarbital and the stomachs were removed. Subsequent tissue manipulations and subcellular fractionations were performed at 0° C. to 4° C. After the stomachs were cut open and rinsed with tap water, the antral and cardiac regions were removed and the remaining tissue was rinsed three times in saline. The glandular mucosa was removed mechanically, chopped finely in a medium containing 10 mM Tris hydrochloride (pH 7.4) and 250 mM sucrose, and homogenized. The homogenate was centrifuged at 20,000×g for twenty minutes and the pellet discarded. The supernatant was then centrifuged at 150,000×g for ninety minutes and the supernatant discarded. The pellet was resuspended in the Tris-HCl/sucrose medium by homogenization. Part (2 ml) of the resultant microsomal suspension was layered onto a step gradient consisting of 9 ml of 15% sucrose above 12 ml of 30% sucrose, each sucrose solution being buffered with 10 mM Tris hydrochloride (pH 7.4) containing 0.01% sodium azide. The microsomes retained at the 15%-30% sucrose interface, after centrifugation at 250,000×g for sixty minutes, were used as the source of (H^+/K^+)-ATPase. Microsomal preparations were lyophilized, a process that assured potassium ion permiability, and stored at −10° C. until used.
(H^+/K^+)-ATPase activity for each test compound was determined, in duplicate, by measuring the release of inorganic phosphate, which was assayed according to the method of J. ChandraRajan and L. Klein, Anal. Biochem., 72 , 407 (1976). The (H^+/K^+)-ATPase assay medium consisted of 20 mm mes-Tris (pH 6.0), 5 mM magnesium chloride, 25 mM sucrose, and 4 mM Tris-ATP with or without 20 mM potassium chloride in a total volume of 2 ml. Microsomal suspensions (20 to 60 mcl, containing about 25 mcg protein) were added to the assay medium, without Tris-ATP, and then preincubated with a test compound for thirty minutes at 37° C. The assay was initiated by adding Tris-ATP and the mixture was incubated another thirty minutes at 37° C. A 200-mcl aliquot of the assay mixture was then added to 1.4 ml of a solution consisting of 0.1 M sodium acetate (pH 4.0) and 10% sodium dodecylsulfate, followed by the addition of 200 mcl each of 1% ammonium molybdate and 1% ascorbic acid. At least fifteen minutes later, the optical absorbance at 870 nm (which was proportional to inorganic phosphate concentration up to 100 nmoles per tube, as determined by a standard curve) was obtained. Enzyme activity was linear with incubation time.
(H^+/K^+)-ATPase activity is represented by the difference between the measured activities in the presence of potassium-ion (K^+-stimulated) and in the absence of potassium ion (basal).

[3] abbreviates: iv, 3 mg/kg i.v., histamine-stimulated, four-hour period.
Setting [4] is: intraduodenal, 3 mg/kg i.d., histamine-stimulated, four-hour period.

As a reminder, the melting point is the temperature, or range, at which the solid turns liquid.

Molecules are shown by their SMILES. pIC50: −log10 of the molar value. Like-named read-outs stand apart in the source and are kept apart here.

Regarding `Cc1cccc2[nH]c([S+]([O-])Cc3ccccc3N)nc12.Cc1cccc2[nH]c([S+]([O-])Cc3ccccc3N)nc12.O` (centres unmarked) [Example 8, 2-[[(4-Methyl-1H-benzimidazol-2-yl)sulfinyl]methyl]benzenamine hemihydrate], the “Gastric-Fistula Beagle % Inhibition (3 mg/kg dose)” value in data set [1] (3 mg/kg i.v., histamine-stimulated, four-hour period) was determined as 60 i.v. %. In addition, the pIC50 in data set [2] is 5.13.
On to `COC(=O)c1cccc(C[S+]([O-])c2nc3ccccc3[nH]2)c1N` (centres unmarked) [Example 69, Methyl 2-amino-3-[(1H-benzimidazol-2-ylsulfinyl)methyl]benzoate hydrate], for which the inhibition in vivo at 3 mg/kg in data set [1] (intraduodenal) was 28%. Besides, the pIC50 in data set [2] was 3.82.
Take `COc1ccc2[nH]c([S+]([O-])Cc3cccc(N)n3)nc2c1` (centres unmarked) [Example 91, 6-[[(5-Methoxy-1H-benzimidazol-2-yl)sulfinyl]-methyl]-2-pyridinamine]: the inhibition in vivo at 3 mg/kg in data set [1] (setting [3]) is 46%. The pIC50 in data set [2] is 5.35.
For the compound `Nc1ccc(C(F)(F)F)cc1C[S+]([O-])c1nc2ccccc2[nH]1` (centres unmarked) [Example 49, 2-[(1H-Benzimidazol-2-ylsulfinyl)methyl]-4-(trifluoromethyl)benzenamine], the melting point fell in the range of 185 to 187 °C. Further, in data set [1] (setting [4]), the inhibition in vivo at 3 mg/kg is 16%. Further, the pIC50 in data set [2] was less than 4.00.
`Nc1cc(Cl)ccc1C[S+]([O-])c1nc2ccccc2[nH]1` (centres unmarked) [Example 18, 2-[(1H-Benzimidazol-2-ylsulfinyl)methyl]-5-chlorobenzenamine] returned a melting point of 173.5 to 175.5 °C. The inhibition in vivo at 3 mg/kg in data set [1] (setting [3]) came out at 13%. In addition, the pIC50 in data set [2] is 4.62.
As to `Nc1ccc(F)cc1C[S+]([O-])c1nc2ccccc2[nH]1` (centres unmarked) [Example 76, 2-[(1H-Benzimidazol-2-ylsulfinyl)methyl]-4-fluorobenzenamine], the melting point lay within 184 to 185 °C. For the same compound, in data set [2], the pIC50 is 4.60.
On to `Nc1cccc(C[S+]([O-])c2nc3ccccc3[nH]2)n1` (centres unmarked) [Example 85, 6-[(1H-Benzimidazol-2-ylsulfinyl)methyl]-2-pyridinamine], for which the inhibition in vivo at 3 mg/kg in data set [1] (setting [3]) stood at 59%. In addition, in data set [2], the pIC50 is 5.60.
For `CCc1cccc(C[S+]([O-])c2nc3ccccc3[nH]2)c1N` (centres unmarked) [Example 38, 2-[(1H-Benzimidazol-2-ylsulfinyl)methyl]-6-ethylbenzenamine], in data set [1] (setting [4]), the inhibition in vivo at 3 mg/kg is 21%. For the same compound, the pIC50 in data set [2] was 5.41.
In the same order, the values of `CCNc1cccc(C[S+]([O-])c2nc3ccccc3[nH]2)n1` (centres unmarked) [Example 109, 6-[(1H-Benzimidazol-2-ylsulfinyl)methyl]-N-ethyl-2-pyridinamine] are 58% and 4.70.
In the case of `Nc1ncccc1C[S+]([O-])c1nc2ccccc2[nH]1` (centres unmarked) [Example 81, 3-[(1H-Benzimidazol-2-ylsulfinyl)methyl]-2-pyridinamine hydrate], in data set [1] (iv), the inhibition in vivo at 3 mg/kg was found to be 41%. Also, the pIC50 in data set [2] was no more than 4.00.
`CCOc1ccc2[nH]c([S+]([O-])Cc3cc(C)ccc3N)nc2c1` (centres unmarked) [Example 61, 2-[[(5-Ethoxy-1H-benzimidazol-2-yl)sulfinyl]-methyl]-4-methylbenzenamine] registered a melting point of 144 to 145 °C. The pIC50 in data set [2] was 5.28.
Turning to `CCCCc1ccc(N)c(C[S+]([O-])c2nc3ccccc3[nH]2)c1` (centres unmarked) [Example 51, 2-[(1H-Benzimidazol-2-ylsulfinyl)methyl]-4-butylbenzenamine], the melting point was in the range of 146 to 148 °C. Besides, the inhibition in vivo at 3 mg/kg in data set [1] (setting [4]) was 19%. Besides, in data set [2], the pIC50 was 5.59.
In the same order, the values of `CCc1ccc(N)c(C[S+]([O-])c2nc3ccccc3[nH]2)c1` (centres unmarked) [Example 37, 2-[(1H-Benzimidazol-2-ylsulfinyl)methyl]-4-ethylbenzenamine] are 155 to 156 °C, 62% and 5.70.
For the compound `Cc1cccc(N)c1C[S+]([O-])c1nc2ccccc2[nH]1` (centres unmarked) [Example 24, 2-[(1H-Benzimidazol-2-ylsulfinyl)methyl]-3-methylbenzenamine ¼ hydrate], the inhibition in vivo at 3 mg/kg in data set [1] (setting [3]) came out at 73%. Further, the pIC50 in data set [2] is 6.18.
In the case of `Nc1ccccc1C[S+]([O-])c1nc2ccccc2[nH]1` (centres unmarked) [Example 3, 2-[(1H-Benzimidazol-2-ylsulfinyl)methyl]benzenamine], the melting point lay within 164 to 165 °C. Moreover, the inhibition in vivo at 3 mg/kg in data set [1] (setting [4]) came out at 53%. The inhibition in vivo at 3 mg/kg in data set [1] (setting [3]) stood at 59%. Further, the pIC50 in data set [2] was 5.37.
Regarding `Cc1ccc(N)c(C[S+]([O-])c2nc3ccccc3[nH]2)c1` (centres unmarked) [Example 26, 2-[(1H-Benzimidazol-2-ylsulfinyl)methyl]-4-methylbenzenamine], the inhibition in vivo at 3 mg/kg in data set [1] (setting [3]) stood at 67%. In addition, in data set [2], the pIC50 was 5.68.
Compound `COc1ccc2[nH]c([S+]([O-])Cc3cccc(C)c3N)nc2c1` (centres unmarked) [Example 36, 2-[[(5-Methoxy-1H-benzimidazol-2-yl)sulfinyl]methyl]-6-methylbenzenamine] came in with a melting point of 142 to 144 °C. Moreover, the inhibition in vivo at 3 mg/kg in data set [1] (setting [4]) came out at 72%. Also, in data set [1] (setting [3]), the inhibition in vivo at 3 mg/kg was determined as 96%. Also, the pIC50 in data set [2] was 5.27.
For `Nc1ccc(Cl)cc1C[S+]([O-])c1nc2ccccc2[nH]1` (centres unmarked) [Example 16, 2-[(1H-Benzimidazol-2-ylsulfinyl)methyl]-4-chlorobenzenamine], the melting point lay within 210 to 211 °C. Also, the inhibition in vivo at 3 mg/kg in data set [1] (setting [3]) was 24%. In addition, the pIC50 in data set [2] was 3.89.
As for `Cc1cccc(C[S+]([O-])c2nc3ccccc3[nH]2)c1N` (centres unmarked) [Example 28, 2-[(1H-Benzimidazol-2-ylsulfinyl)methyl]-6-methylbenzenamine], the melting point was 156 to 157 °C. In addition, in data set [1] (setting [4]), the inhibition in vivo at 3 mg/kg amounted to 44%. In data set [1] (setting [3]), the inhibition in vivo at 3 mg/kg is 93%. In addition, the pIC50 in data set [2] was 5.49.
In turn, `CN(C)c1ccccc1CSc1nc2ccccc2[nH]1` [Example 1, 2-[(1H-Benzimidazol-2-ylthio)methyl]-N,N-dimethylbenzenamine] registered a melting point of 167 to 170 °C.
In turn, `CC(=O)Nc1ccccc1C[S+]([O-])c1nc2ccccc2[nH]1` (centres unmarked) [Example 6, N-[2-[(1H-Benzimidazol-2-ylsulfinyl)methyl]phenyl]acetamide] came in with a melting point of 201 to 202.5 °C. Further, the inhibition in vivo at 3 mg/kg in data set [1] (setting [3]) is 37%. The pIC50 in data set [2] was less than 4.00.
